Reference: US12544391B2, “CD73 inhibitors” (ORIC Pharmaceuticals, Inc., priority 2019, dated 2026)

target: T1, CD73 (Homo sapiens, UniProt P21589); assay: CD73 biochemical assay, Malachite Green detection of AMP hydrolysis; conditions: CD73 320 pM, AMP 15 μM, Malachite Green readout
T1 sequence (P21589 27-549): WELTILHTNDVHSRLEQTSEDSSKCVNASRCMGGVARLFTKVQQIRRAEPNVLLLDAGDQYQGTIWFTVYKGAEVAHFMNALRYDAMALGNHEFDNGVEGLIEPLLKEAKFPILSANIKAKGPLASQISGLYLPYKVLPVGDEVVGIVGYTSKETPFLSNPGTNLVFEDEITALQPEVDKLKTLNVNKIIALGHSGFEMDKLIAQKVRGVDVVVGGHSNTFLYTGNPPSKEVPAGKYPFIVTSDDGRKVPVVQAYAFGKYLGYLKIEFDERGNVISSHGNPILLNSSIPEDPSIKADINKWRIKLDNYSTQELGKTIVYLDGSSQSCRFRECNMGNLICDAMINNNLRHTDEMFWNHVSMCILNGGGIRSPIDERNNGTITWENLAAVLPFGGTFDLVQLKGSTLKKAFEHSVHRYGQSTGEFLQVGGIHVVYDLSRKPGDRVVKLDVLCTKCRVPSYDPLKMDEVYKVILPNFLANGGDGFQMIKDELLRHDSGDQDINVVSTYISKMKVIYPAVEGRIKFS
Protocol: Assay Reaction Conditions
• Assay Volume: 70 μl • Reaction Volume: 50 μl • CD73: 0.3208 nM • AMP: 15 μM • Assay Buffer: 2 5 mM Tris-HCL, pH 7.4, 0.01% Brij-35, 0.01% BSA, 5 mM MgCl2 Assay Procedure:
A clear 384 well plate was used in this assay.
Made dose titration of testing compounds in assay buffer, 10 points ½ log titrations in duplicates starting at 100 μM. Total volume for each well was 25 μl, with CD73 then added to each well for a final concentration of 320 pM. The solution was then incubated at RT for 15 min. 25 μl of AMP was added to each well for a final concentration of 15 μM, and then incubated at rt for 10 min. 10 μl of Malachite Green Reagent A was then added and allowed to incubate at rt for 10 min. 10 μl of Malachite Green Reagent B was then added and allowed to incubate at rt for 45 min. The absorbance for each sample was read on an Envision plate reader using excitation filter: Cy5 […].
The ability of the compounds disclosed herein to inhibit CD73 activity was quantified and the respective IC50 values were determined. Table 2 provides the biochemical IC50 values of compounds disclosed herein.

| SMILES | IC50 |
| --- | --- |
| COC[C@](Cc1nn[nH]n1)(OC[C@H]1O[C@@H](c2ccc3c(NC4CCCC4)nc(Cl)nn23)[C@H](O)[C@@H]1O)P(=O)(O)O (single isomer, unassigned) [Example 3] | ≤ 0.5 nM |
| O=P(O)(O)[C@@](CO)(Cc1nn[nH]n1)OC[C@H]1O[C@@H](c2ccc3c(NC4CCCC4)nc(Cl)nn23)[C@H](O)[C@@H]1O [Example 1, ((R)-2-(((2R,3S,4R,5S)-5-(2-Chloro-4-(cyclopentylamino)pyrrolo[2,1-f][1,2,4]triazin-7-yl)-3,4-dihydroxytetrahydrofuran-2-yl)methoxy)-1-hydroxy-3-(2H-tetrazol-5-yl)propan-2-yl)phosphonic acid] | ≤ 0.5 nM |
| O=P(O)(O)[C@](CO)(Cc1nn[nH]n1)OC[C@H]1O[C@@H](c2ccc3c(NC4CCCC4)nc(Cl)nn23)[C@H](O)[C@@H]1O [Example 2, ((S)-2-(((2R,3S,4R,5S)-5-(2-Chloro-4-(cyclopentylamino)pyrrolo[2,1-f][1,2,4]triazin-7-yl)-3,4-dihydroxytetrahydrofuran-2-yl)methoxy)-1-hydroxy-3-(2H-tetrazol-5-yl)propan-2-yl)phosphonic acid] | 1 to 100 nM |
| COC[C@@](CO)(OC[C@H]1O[C@@H](c2ccc3c(NC4CCCC4)nc(Cl)nn23)[C@H](O)[C@@H]1O)P(=O)(O)O [Example 7, ((S)-2-(((2R,3S,4R,5S)-5-(2-chloro-4-(cyclopentylamino)pyrrolo[2,1-f][1,2,4]triazin-7-yl)-3,4-dihydroxytetrahydrofuran-2-yl)methoxy)-1-hydroxy-3-methoxypropan-2-yl)phosphonic acid] | 1 to 100 nM |
| COCC(OC[C@H]1O[C@@H](c2ccc3c(NC4CCCC4)nc(Cl)nn23)[C@H](O)[C@@H]1O)(C(=O)O)P(=O)(O)O (stereo partly drawn) [Example 8, 2-(((2R,3S,4R,5S)-5-(2-Chloro-4-(cyclopentylamino)pyrrolo[2,1-f][1,2,4]triazin-7-yl)-3,4-dihydroxytetrahydrofuran-2-yl)methoxy)-3-methoxy-2-phosphonopropanoic acid] | 0.5 to 1 nM |
| COC[C@@](COCc1nn[nH]n1)(OC[C@H]1O[C@@H](c2ccc3c(NC4CCCC4)nc(Cl)nn23)[C@H](O)[C@@H]1O)P(=O)(O)O [Example 10, ((R)-1-((2H-tetrazol-5-yl)methoxy)-2-(((2R,3S,4R,5S)-5-(2-chloro-4-(cyclopentylamino)pyrrolo[2,1-f][1,2,4]triazin-7-yl)-3,4-dihydroxytetrahydrofuran-2-yl)methoxy)-3-methoxypropan-2-yl)phosphonic acid] | 1 to 100 nM |
| O=P(O)(O)C(CO)(CO)OC[C@H]1O[C@@H](c2ccc3c(NC4CCCC4)nc(Cl)nn23)[C@H](O)[C@@H]1O [Example 11, (2-(((2R,3S,4R,5S)-5-(2-chloro-4-(cyclopentylamino)pyrrolo[2,1-f][1,2,4]triazin-7-yl)-3,4-dihydroxytetrahydrofuran-2-yl)methoxy)-1,3-dihydroxypropan-2-yl)phosphonic acid] | 0.5 to 1 nM |
| COCC(OC[C@H]1O[C@@H](c2ccc3c(NC4CCCC4)nc(Cl)nn23)[C@H](O)[C@@H]1O)P(=O)(O)O (stereo partly drawn) [Example 14, (1-(((2R,3S,4R,5S)-5-(2-chloro-4-(cyclopentylamino)pyrrolo[2,1-f][1,2,4]triazin-7-yl)-3,4-dihydroxytetrahydrofuran-2-yl)methoxy)-2-methoxyethyl)phosphonic acid] | 0.5 to 1 nM |
| CC(CO)(OC[C@H]1O[C@@H](c2ccc3c(NC4CCCC4)nc(Cl)nn23)[C@H](O)[C@@H]1O)P(=O)(O)O (stereo partly drawn) [Example 19, (2-(((2R,3S,4R,5S)-5-(2-chloro-4-(cyclopentylamino)pyrrolo[2,1-f][1,2,4]triazin-7-yl)-3,4-dihydroxytetrahydrofuran-2-yl)methoxy)-1-hydroxypropan-2-yl)phosphonic acid] | 1 to 100 nM |
| O=P(O)(O)C(CO)(Cc1nn[nH]n1)OC[C@H]1O[C@@H](c2ccc3c(NC4CCCC4)nc(CO)nn23)[C@H](O)[C@@H]1O (some centres unmarked) [Example 21] | 0.5 to 1 nM |
| O=C(O)COCC(CO)(OC[C@H]1O[C@@H](c2ccc3c(NC4CCCC4)nc(Cl)nn23)[C@H](O)[C@@H]1O)P(=O)(O)O (stereo partly drawn) [Example 23, 2-(2-(((2R,3S,4R,5S)-5-(2-chloro-4-(cyclopentylamino)pyrrolo[2,1-f][1,2,4]triazin-7-yl)-3,4-dihydroxytetrahydrofuran-2-yl)methoxy)-3-hydroxy-2-phosphonopropoxy)acetic acid] | 0.5 to 1 nM |

Further lines, results first:

| IC50 | SMILES |
| --- | --- |
| 1 to 100 nM | COC[C@@](Cc1nn[nH]n1)(OC[C@H]1O[C@@H](c2ccc3c(NC4CCCC4)nc(Cl)nn23)[C@H](O)[C@@H]1O)P(=O)(O)O [Example 4, ((S)-2-(((2R,3S,4R,5S)-5-(2-Chloro-4-(cyclopentylamino)pyrrolo[2,1-f][1,2,4]triazin-7-yl)-3,4-dihydroxytetrahydrofuran-2-yl)methoxy)-1-methoxy-3-(2H-tetrazol-5-yl)propan-2-yl)phosphonic acid] |
| ≤ 0.5 nM | COC[C@](CO)(OC[C@H]1O[C@@H](c2ccc3c(NC4CCCC4)nc(Cl)nn23)[C@H](O)[C@@H]1O)P(=O)(O)O [Example 6, ((R)-2-(((2R,3S,4R,5S)-5-(2-Chloro-4-(cyclopentylamino)pyrrolo[2,1-f][1,2,4]triazin-7-yl)-3,4-dihydroxytetrahydrofuran-2-yl)methoxy)-1-hydroxy-3-methoxypropan-2-yl)phosphonic acid] |
| 1 to 100 nM | O=P(O)(O)C(CO)OC[C@H]1O[C@@H](c2ccc3c(NC4CCCC4)nc(Cl)nn23)[C@H](O)[C@@H]1O (stereo partly drawn) [Example 13, (1-(((2R,3S,4R,5S)-5-(2-chloro-4-(cyclopentylamino)pyrrolo[2,1-f][1,2,4]triazin-7-yl)-3,4-dihydroxytetrahydrofuran-2-yl)methoxy)-2-hydroxyethyl)phosphonic acid] |
| 0.5 to 1 nM | O=P(O)(O)[C@](CO)(COCc1nn[nH]n1)OC[C@H]1O[C@@H](c2ccc3c(NC4CCCC4)nc(Cl)nn23)[C@H](O)[C@@H]1O [Example 16, ((R)-1-((2H-tetrazol-5-yl)methoxy)-2-(((2R,3S,4R,5S)-5-(2-chloro-4-(cyclopentylamino)pyrrolo[2,1-f][1,2,4]triazin-7-yl)-3,4-dihydroxytetrahydrofuran-2-yl)methoxy)-3-hydroxypropan-2-yl)phosphonic acid] |
| 0.5 to 1 nM | O=P(O)(O)C(CO)(CO)OC[C@H]1O[C@@H](c2cnn3c(NC4CCCC4)cc(Cl)nc23)[C@H](O)[C@@H]1O [Example 17, (2-(((2R,3S,4R,5S)-5-(5-Chloro-7-(cyclopentylamino)pyrazolo[1,5-a]pyrimidin-3-yl)-3,4-dihydroxytetrahydrofuran-2-yl)methoxy)-1,3-dihydroxypropan-2-yl)phosphonic acid] |
| 1 to 100 nM | O=P(O)(O)C(CO)(CO)OC[C@H]1O[C@H](c2cnn3c(NC4CCCC4)cc(Cl)nc23)[C@H](O)[C@@H]1O [Example 18, (2-(((2R,3S,4R,5R)-5-(5-Chloro-7-(cyclopentylamino)pyrazolo[1,5-a]pyrimidin-3-yl)-3,4-dihydroxytetrahydrofuran-2-yl)methoxy)-1,3-dihydroxypropan-2-yl)phosphonic acid] |
| ≤ 0.5 nM | O=P(O)(O)C(CO)(COCc1nn[nH]n1)OC[C@H]1O[C@@H](c2ccc3c(NC4CCCC4)nc(Cl)nn23)[C@H](O)[C@@H]1O (stereo partly drawn) [Example 20, (1-((2H-tetrazol-5-yl)methoxy)-2-(((2R,3S,4R,5S)-5-(2-chloro-4-(cyclopentylamino)pyrrolo[2,1-f][1,2,4]triazin-7-yl)-3,4-dihydroxytetrahydrofuran-2-yl)methoxy)-3-hydroxypropan-2-yl)phosphonic acid] |
| ≤ 0.5 nM | COCC(C)(OC[C@H]1O[C@@H](c2ccc3c(NC4CCCC4)nc(Cl)nn23)[C@H](O)[C@@H]1O)P(=O)(O)O (stereo partly drawn) [Example 22, (2-(((2R,3S,4R,5S)-5-(2-chloro-4-(cyclopentylamino)pyrrolo[2,1-f][1,2,4]triazin-7-yl)-3,4-dihydroxytetrahydrofuran-2-yl)methoxy)-1-methoxypropan-2-yl)phosphonic acid] |
| 1 to 100 nM | CCOC(=O)COCC(CO)(OC[C@H]1O[C@@H](c2ccc3c(NC4CCCC4)nc(Cl)nn23)[C@H](O)[C@@H]1O)P(=O)(O)O (stereo partly drawn) [Example 24, (2-(((2R,3S,4R,5S)-5-(2-chloro-4-(cyclopentylamino)pyrrolo[2,1-f][1,2,4]triazin-7-yl)-3,4-dihydroxytetrahydrofuran-2-yl)methoxy)-1-(2-ethoxy-2-oxoethoxy)-3-hydroxypropan-2-yl)phosphonic acid] |
